Measured values as given in patent US8097728B2, “Iminosugar compounds with antiflavirus activity” (Philadelphia Health & Education Corporation, priority 2007, dated 2012).
Read-outs that look alike come from different tables or passages of the source.

Experiments:
ER glucosidase = conditions: 6000 uM; cited from earlier work
HBV = HBV antigen assay: LHBs and MHBs secreted by HepG2.2.15 cells, immunoblot; format: cell-based, Hepatitis B virus; conditions: 7 days
Protocol: MHBs and LHBs are HBV envelope proteins that are sensitive to glucosidase inhibition and inhibition of these important viral glycoproteins serves as a surrogate for HBV growth. […] To assess the activity of this compound in the context of viral replication, HepG2 2.2.15 cells were incubated with the indicated DNJ derived compound. HepG 2.2.15 cells secrete readily detectable amounts of MHBs and LHBs into the culture medium. After 7 days of incubation, the amount of HBV M and L in the culture medium was determined by western blot. […] The nature of the selective antiviral activity is not known, but may be due to cell specific activity since HBV is studied in human liver derived hepatoblastoma HepG2 cells and BVDV and WNV were studied in MDBK and BHK cells, respectively.
HBV antigen assay: Antiviral activity against HBV was determined using HepG2.2.15 cells, which contain a dimer of the HBV genome and express all viral gene products, including envelope glycoproteins (Sells, Chen, and Acs, 1987). Briefly, HepG2.2.15 cells were seeded in 24 well trays, and allowed to grow to confluence prior to addition of drug, as described previously (Simsek et al., 2005). After seven days of treatment, supernatants were harvested and assayed for the presence of the Large Hepatitis B (LHBs) and middle Hepatitis B (MHBs) glycoproteins by electrophoresis through 12% polyacrylamide gels and immunoblotting with a polyclonal antibody that recognizes the pre-S2 region of the LHBs and MHBs proteins (Research Diagnostics Inc., Flanders, N.J.) as described (Simsek et al., 2005). Quantitation was performed using AlphaEase software (Alphalnnotech).

BVDV = BVDV single cycle virus yield reduction assay in MDBK cells; format: cell-based, Bovine Viral Diarrhea virus (NADL strain)
Protocol: BVDV antiviral and plaque assays. To evaluate antiviral activity against BVDV, a single cycle virus yield reduction assay was performed in the presence of various concentrations of the test compounds. Specifically, 2×10^5 MDBK cells/well were plated in 24 well plates. Twenty-four hours later, the cells were infected with BVDV at a multiplicity of infection (moi) of 0.5 PFU/cell in 100 ul complete media. After adsorption for 1 h at 37° C., the inoculum was removed, and cells were washed with media before media containing vehicle or various concentrations of each compound was added. At 22 hour post infection, both cell and media were collected and freeze-thawed three times before the virus was titered. For BVDV virus titer determination, 10^−2, 10^−3, and 10^−4 dilutions of virus were inoculated onto MDBK cells as described previously (Gu et al., 2000; Jordan et al., 2002). After absorption and washing the cells were overlaid with medium containing methylcellulose or soft agar and incubated at 37° C. for 3 days or until plaques were visible. Plaques were counted directly under the microscope or after staining with crystal violet in 70% methanol for 15 min.
(§1) The anti-viral activity of this family of compounds against BVDV was then determined by a single cycle viral yield reduction assay in Madin Darby Bovine Kidney (MDBK) cells where the compounds are incubated with cells for 20 hours during the period of infection. Yields of virus were then determined by plaque assay on new MDBK cell monolayers. Compound toxicity was measured by MTT assay and the CC50 determined as the concentration of compound producing 50% reduction in absorption readings. […] This is consistent with previous findings in which oxygenation and methoxylation of side chains emanating from the ring nitrogen were less toxic in tissue culture and in animals than straight chain alkylated DNJs (Mehta et al., 2002b).

DV serotype 2 = assay: DV yield reduction assay in BHK cells; format: cell-based, Dengue virus (DV) serotype 2; conditions: DV (BHK)
Protocol: In the DV infection assay, a serotype 2 DV was used to infect BHK cells in the presence or absence of testing compounds and viruses produced after 72 hours were titered in a manner similar to the WNV assay. In this experiment, N-butylcyclohexyl-DNJ (SP169), N-pentyl(1-hydroxylcyclohexyl)-DNJ (OSL-95II), […] and N-propylcyclohexyl-DNJ (SP173) were compared with NNDNJ (Wu et al., 2002) and castanospermine. […] All compounds had no toxicity at the highest concentrations used in this experiment (FIG. 5B, Table 1).

MHBs = MHBs expressed transiently in cells; read-out: IC50, reduction of secretion of MHBs; cited from earlier work
MDBK cells = assay: MTT compound toxicity assay on MDBK cells; format: cell-based, Bovine; conditions: BVDV (MDBK); concentration reducing MTT values (570 nm) by 50% relative to DMSO; 72 hours
Protocol: (§2) Compound toxicity assay. Compound cytotoxicity was assessed by using an MTT based toxicity assay kit (Sigma, St. Louis, Mo.) as described elsewhere (Gu et al., 2006). Briefly, cells cultured under conditions identical to those used in the viral assay were incubated with various concentrations of the compound for 72 hours. MTT was added to the media to a final concentration of 0.5 mg/ml and was incubated for 3 hours at 37 C. After the culture media was removed, formazan crystals was dissolved by adding 150 ul of solubilization solution (10% Triton X-100, 0.1 N HCl in anhydrous isopropanol) for 15-30 minutes. The absorbance of the dissolved formazan was measured spectrophotometrically at 570 nm with absorbance at 690 nm as background.
as §1

WNV = WNV yield reduction assay in BHK cells
Protocol: Cells and viruses. BVDV-free MDBK cells (CCL 22) were obtained from the American Type Culture Collection and propagated in DMEM/F12 essential medium supplemented with penicillin (500 U/ml), streptomycin (500 U/ml), and 10% heat inactivated horse serum (Invitrogen). Cells were maintained in a humidified incubator at 37° C. with 5% CO2. BVDV (NADL strain) was obtained from Dr. Rubin Donis (Univ. of Nebraska-Lincoln). For infections, virus inoculum was added in complete medium and adsorbed for 1 h at 37° C., the inoculum was then removed, the cells washed once with medium and fresh medium containing compounds added. Virus stocks were prepared by freeze-thawing the infected cells and culture supernatant three times followed by centrifugation at 1,000 g for 5 min. Stock titers were determined, and stocks were aliquoted and stored at −80° C. WNV was obtained from a cDNA clone of a human 2002 isolate from Texas (Rossi et al., 2005); virus obtained from BHK cells electroporated with the in vitro synthesized RNA from this cDNA clone was passaged in Vero cells before use in antiviral assays. Dengue virus (DV) serotype 2 was a New Guinea C virus that had been passaged 28 times in suckling mouse brain, twice in Vero cells, and once in C6/36 mosquito cells.
WNV and DV Yield Reduction assay: Antiviral activity against WNV was evaluated in a yield reduction assay. Briefly, BHK cells were plated in 96-well plates at a concentration of 2.5×10^4 cells/well. 24 hours after plating, the cells were infected with WNV at an MOI of 0.05. After 1 hour the inoculum was aspirated and the cells re-fed with fresh DMEM containing dilutions of the test compounds. Plates were then incubated at 37° C. for 48 hours, the supernatant collected and the WNV produced titered. For virus titration, Vero cells were plated in 96-well plates at 8.0×10^3 cells/well and incubated overnight. The Vero cell monolayers were then infected for 1 hour with various dilutions of the WNV supernatant, overlaid with media containing 0.6% tragacanth (ICN, CA) and incubated at 37° C. for 24-30 hours. The culture media was then aspirated; the plate was rinsed, air-dried, and fixed with 50 ul/well acetone/methanol (50:50). Viral foci were detected for enumeration by immunostaining as described previously (Rossi et al., 2005). For antiviral testing against DV, DV serotype 2, drug incubations and titrations were performed essentially as described for WNV, except that the virus was harvested from drug-treated cultures 72 hrs after infection, and foci were stained using hybridoma culture fluid harvested from monoclonal antibody-producing hybridoma clone D1-4G2 (Gentry et al., 1982) following 3 days of incubation on Vero cells under the tragacanth overlay.
For this purpose, BHK cells were infected with WNV at an moi of 0.05, and incubated in either the absence or presence of various concentrations of N-butylcyclohexyl-DNJ (SP169) and N-propylcyclohexyl-DNJ (SP173). After three days, the amount of progeny virus produced was determined by plaque assays on indicator Vero cells.

BHK cells = assay: MTT compound toxicity assay on BHK cells; format: cell-based
Protocol: as §2

| SMILES | inhibition of the ER glucosidase (ER glucosidase) | reduction of MHBs and LHBs in culture medium (in words) (HBV; 6000 uM (6 mM), FIG. 6B) | SI (Selective Index, CC50/IC50) (BVDV; BVDV (MDBK)) | IC50 (BVDV; tissue culture, data not shown, read-out: concentration inhibiting 50% of the yield of BVDV) [µM] | SI (Selective Index, CC50/IC50) (DV serotype 2) | IC50 (DV serotype 2; serotype 2, 72 hrs, read-out: IC50) [µM] | IC50 (MHBs) [µM] | CC50 (MDBK cells) [µM] | antiviral activity against WNV (in words) (WNV; BHK cells, moi 0.05, FIG. 3B / 4D) | SI (Selective Index, CC50/IC50) (WNV; WNV (BHK)) | IC50 (WNV; WNV (BHK), plaque number reduced by 50% relative to DMSO, 48 hours) [µM] | IC50 (WNV; read-out: concentration inhibiting 50% of the WNV progeny produced, text to FIG. 3B, BHK cells, moi 0.05) [µM] | inhibition of secretion of viral glycoproteins MHBs and LHBs (in words) (HBV; 50 uM, FIG. 6A) | concentration without any detectable cell toxicity (highest concentration tested) (BHK cells; BHK cells, measured in parallel to WNV assay, data not shown) [µM] | CC50 (BHK cells; WNV (BHK), MTT, 50% reduction relative to DMSO) [µM] |
| --- | --- | --- | --- | --- | --- | --- | --- | --- | --- | --- | --- | --- | --- | --- | --- |
| OC[C@H]1NC[C@H](O)[C@@H](O)[C@@H]1O [DNJ, 1,5-dideoxy-1,5-imino-D-glucitol, reference compound] | at least 90% | antiviral activity at this dose is consistent with previous findings |  |  |  |  |  |  |  |  |  |  |  |  |  |
| OC[C@@H]1[C@@H](O)[C@H](O)[C@@H](O)CN1CCCCC1CCCCC1 [SP169, N-butylcyclohexyl-DNJ] |  |  | >100 | 3 | >66 | 1.5 | ≤ 35 | 300 | comparable to NNDNJ in activity | >40 | 2.5 | 5 | unable to inhibit secretion of viral glycoproteins | 100 | > 100 |
